Results reported in patent US11220503B2, “Phthalazine derivatives, preparation method, pharmaceutical composition and usage thereof” (Shanghai SIMR Biotech Co., Ltd., priority 2015, dated 2022).

Tests used:
[1] = biological target: T1, α5β3γ2 receptor (Homo sapiens, UniProt P18507+P31644); experiment: Supplementary data for cell level screening: new electrophysiology method (I. Lecker et al); assay type: cell-based; conditions: for Inverse agonism efficacy(%): new method, CsCl intracellular solution, GABA 0.1˜0.3 CM, other procedures as previous method; for inverse agonism efficacy of the compound/α5IA inverse agonism efficacy: ratio to the α5IA reference run above in the table (r4 or r29)
T1 construct: expressed in transfected cells; host or cells: HEK-293 (stably transfected)
Protocol: The inventors used electrophysiological methods to assay the inverse agonist efficacy of the substance to be tested. The detailed procedures are as follows: (1) Different subunits of GABAA receptors were expressed in human embryonic kidney cells 293 (HEK293). The cells were cultured in a culture medium and used as a cell model for screening potential analgesics. The α, β and γ subunits are necessary to form complete functional GABAA receptors. In this example, the inventor has established the following cell model: (a) α5 subunit (protein sequence is GenBank accession number: NP_001158509), β3 subunit (protein sequence is GenBank accession number: NP_068712) and γ2 subunit (protein sequence is GenBank accession number: NP_944494) were expressed in HEK-293 cell lines at the same time, which formed the complete functional GABAA receptors. (2) Cells were stably transfected HEK-293 cells expressing α5β3γ2 receptor, which were labeled by green fluorescent protein (GFP). Cells were grown in 10 cm dishes. The cells were passaged after reaching 80-90% confluence. During passaging, the culture medium was removed and discarded, 3 mL DMEM medium (Gibco™) was added to the dishes, the dishes were shaken slightly, and DMEM was removed and discarded. 3 mL Trypsin (Trypsin-EDTA 0.05%, Gibco™) was added and cells were digested at 37° C. for 3 minutes. Then 3 mL complete growth medium (DMEM+10% horse serum (Gibco™)) was added and the cells at the bottom of the culture dishes were dispersed. The cell suspension were transferred to a 15 mL centrifugal tube (Corning®) and then centrifuged at 200 g for 3 minutes. The supernatant was discarded, 4 mL complete growth medium was added, and the cells were resuspended by gently blowing. The cell suspension was diluted by 1:5 or 1:10 for subculturing. The cell suspension was diluted by 1:12 for electrophysiology experiment, which are added to the 24 well plate (Corning®) which has a glass slide pre-treated with poly-D-lysine. The cells were adhered to the slide before the experiment was conducted. The cells were maintained in culture for no more than 24 hours before use. (3) Compound concentration: for screening, all compounds were diluted to a final concentration of 100 nM. […] The compounds were at the concentration of 1 nM, 10 nM, 50 nM, 100 nM and 1000 nM in dose-inverse agonism efficacy (%) experiment. The whole cell patch clamp technique was used in electrophysiology experiments. The extracellular solution (ECS) contained: 150 mM NaCl, 5 mM KCl, 2.5 mM CaCl2, 1 mM MgCl2, 10 mM HEPES and 10 mM glucose (pH 7.4); […], 5 mM EGTA, 10 mM HEPES ([…] water). The currents were recorded by an EPC-10 amplifier and the PatchMaster software (HEKA). Patch electrodes with a resistance of 5-6 MΩ were pulled from borosilicate glass (Sutter). The diluted compounds were perfused by OCTAFLOWII system. GFP positive and independently growing cells were selected for recording. During recording, the membrane voltage was clamped at −60 mV. During experiment, the cells were firstly perfused with ECS for 20 seconds. When the baseline reached to a stable state, cells were then perfused with GABA solution. Then the current induced by GABA can be detected. After about 20-40 seconds, the current was stable. ECS was switched to compounds solution and the effects of the compounds were detected. At last, the perfusion solution was switched to ECS. The experiment was finished when the post-baseline returned to the pre-baseline before compounds perfusion. Only the data whose pre-baseline and post-baseline are at almost the same level were used for analysis. […] Then, compounds were diluted at the desired concentration in GABA ECS. (4) Currents were analyzed with the PatchMaster (HEKA) software. The GABA currents before (Ipre) and after (Ipost) compounds perfusion were recorded respectively. The efficacies of compounds were calculated by the following equation: inverse agonism efficacy=(Ipost-Ipre)*100/Ipre. N indicates experiment numbers. […]

[2] = biological target: T1, α5β3γ2 receptor; experiment: Cell level screening: whole cell patch clamp, inverse agonist efficacy; assay type: cell-based; conditions: for inhibition at 0.1 µM: HEK293, compound 100 nM, GABA 0.05-0.1 μM, HEK293 α5β3γ2, clamped at −60 mV, (Ipost-Ipre)*100/Ipre, read-out: inverse agonism efficacy(%); for inverse agonism efficacy of the compound/α5IA inverse agonism efficacy: ratio to α5IA, compound 100 nM
Protocol: The inventors used electrophysiological methods to assay the inverse agonist efficacy of the substance to be tested. The detailed procedures are as follows: (1) Different subunits of GABAA receptors were expressed in human embryonic kidney cells 293 (HEK293). The cells were cultured in a culture medium and used as a cell model for screening potential analgesics. The α, β and γ subunits are necessary to form complete functional GABAA receptors. In this example, the inventor has established the following cell model: (a) α5 subunit (protein sequence is GenBank accession number: NP_001158509), β3 subunit (protein sequence is GenBank accession number: NP_068712) and γ2 subunit (protein sequence is GenBank accession number: NP_944494) were expressed in HEK-293 cell lines at the same time, which formed the complete functional GABAA receptors. (2) Cells were stably transfected HEK-293 cells expressing α5β3γ2 receptor, which were labeled by green fluorescent protein (GFP). Cells were grown in 10 cm dishes. The cells were passaged after reaching 80-90% confluence. During passaging, the culture medium was removed and discarded, 3 mL DMEM medium (Gibco™) was added to the dishes, the dishes were shaken slightly, and DMEM was removed and discarded. 3 mL Trypsin (Trypsin-EDTA 0.05%, Gibco™) was added and cells were digested at 37° C. for 3 minutes. Then 3 mL complete growth medium (DMEM+10% horse serum (Gibco™)) was added and the cells at the bottom of the culture dishes were dispersed. The cell suspension were transferred to a 15 mL centrifugal tube (Corning®) and then centrifuged at 200 g for 3 minutes. The supernatant was discarded, 4 mL complete growth medium was added, and the cells were resuspended by gently blowing. The cell suspension was diluted by 1:5 or 1:10 for subculturing. The cell suspension was diluted by 1:12 for electrophysiology experiment, which are added to the 24 well plate (Corning®) which has a glass slide pre-treated with poly-D-lysine. The cells were adhered to the slide before the experiment was conducted. The cells were maintained in culture for no more than 24 hours before use. (3) Compound concentration: for screening, all compounds were diluted to a final concentration of 100 nM. GABA was diluted at the concentration of 0.05-0.1 μM. The compounds were at the concentration of 1 nM, 10 nM, 50 nM, 100 nM and 1000 nM in dose-inverse agonism efficacy (%) experiment. The whole cell patch clamp technique was used in electrophysiology experiments. The extracellular solution (ECS) contained: 150 mM NaCl, 5 mM KCl, 2.5 mM CaCl2, 1 mM MgCl2, 10 mM HEPES and 10 mM glucose (pH 7.4); Patch electrodes were filled with an intracellular solution containing: 140 mM KCl, 5 mM EGTA, 10 mM HEPES (adjusted to pH 7.4 with KOH and to 320-330 mOsm with water). The currents were recorded by an EPC-10 amplifier and the PatchMaster software (HEKA). Patch electrodes with a resistance of 5-6 MΩ were pulled from borosilicate glass (Sutter). The diluted compounds were perfused by OCTAFLOWII system. GFP positive and independently growing cells were selected for recording. During recording, the membrane voltage was clamped at −60 mV. During experiment, the cells were firstly perfused with ECS for 20 seconds. When the baseline reached to a stable state, cells were then perfused with GABA solution. Then the current induced by GABA can be detected. After about 20-40 seconds, the current was stable. ECS was switched to compounds solution and the effects of the compounds were detected. At last, the perfusion solution was switched to ECS. The experiment was finished when the post-baseline returned to the pre-baseline before compounds perfusion. Only the data whose pre-baseline and post-baseline are at almost the same level were used for analysis. GABA was diluted at the concentration of 0.05-0.1 μM in ECS. Then, compounds were diluted at the desired concentration in GABA ECS. (4) Currents were analyzed with the PatchMaster (HEKA) software. […]

T1 sequence (P31644 32-462): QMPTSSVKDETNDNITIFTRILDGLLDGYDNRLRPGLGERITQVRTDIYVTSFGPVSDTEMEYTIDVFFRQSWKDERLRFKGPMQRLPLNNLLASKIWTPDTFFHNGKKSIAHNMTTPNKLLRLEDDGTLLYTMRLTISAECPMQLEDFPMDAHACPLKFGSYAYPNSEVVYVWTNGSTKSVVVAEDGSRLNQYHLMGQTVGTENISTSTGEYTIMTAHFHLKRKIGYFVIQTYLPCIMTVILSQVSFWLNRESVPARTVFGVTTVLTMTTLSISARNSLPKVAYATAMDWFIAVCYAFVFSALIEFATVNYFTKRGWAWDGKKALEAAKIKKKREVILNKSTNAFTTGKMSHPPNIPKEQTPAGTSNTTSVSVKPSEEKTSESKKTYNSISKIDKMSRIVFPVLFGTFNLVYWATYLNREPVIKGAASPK
T1 sequence (P28472 26-473 isoform P28472-2 partner limits assumed): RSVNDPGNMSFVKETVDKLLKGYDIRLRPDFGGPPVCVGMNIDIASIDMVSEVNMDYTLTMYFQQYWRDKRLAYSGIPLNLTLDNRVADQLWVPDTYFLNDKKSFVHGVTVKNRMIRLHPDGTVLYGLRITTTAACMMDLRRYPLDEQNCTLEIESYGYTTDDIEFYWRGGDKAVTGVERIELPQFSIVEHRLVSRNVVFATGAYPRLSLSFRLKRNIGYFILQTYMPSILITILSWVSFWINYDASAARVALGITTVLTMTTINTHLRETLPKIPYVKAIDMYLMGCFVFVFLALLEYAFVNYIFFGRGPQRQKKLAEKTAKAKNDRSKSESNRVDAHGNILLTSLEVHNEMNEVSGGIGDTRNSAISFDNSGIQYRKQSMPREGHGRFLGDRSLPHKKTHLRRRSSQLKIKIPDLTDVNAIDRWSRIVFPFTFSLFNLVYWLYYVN
T1 sequence (P18507 40-475): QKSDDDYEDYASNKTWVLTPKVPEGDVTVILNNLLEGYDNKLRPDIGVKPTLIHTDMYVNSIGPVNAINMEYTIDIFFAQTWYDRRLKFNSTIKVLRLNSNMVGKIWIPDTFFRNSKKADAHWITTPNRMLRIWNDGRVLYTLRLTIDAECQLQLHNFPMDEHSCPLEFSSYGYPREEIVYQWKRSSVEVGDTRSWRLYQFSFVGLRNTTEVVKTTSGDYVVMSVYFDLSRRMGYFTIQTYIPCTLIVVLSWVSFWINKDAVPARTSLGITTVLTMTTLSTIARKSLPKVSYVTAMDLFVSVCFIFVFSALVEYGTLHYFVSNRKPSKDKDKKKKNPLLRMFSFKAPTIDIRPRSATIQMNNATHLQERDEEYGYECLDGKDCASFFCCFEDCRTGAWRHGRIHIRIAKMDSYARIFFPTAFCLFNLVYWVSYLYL

SMILES | Inverse agonism efficacy(%) [1] | inverse agonism efficacy of the compound/α5IA inverse agonism efficacy [1] | inhibition at 0.1 µM [2] | inverse agonism efficacy of the compound/α5IA inverse agonism efficacy [2]
C[C@H](CO)NC(=O)c1ccc(COc2nn3c(-c4cc(CO)on4)nnc3c3ccccc23)c(C#N)c1 [Compound 55, (R)-3-cyano-4-(((3-(5-(hydroxymethyl)isoxazol-3-yl)-[1,2,4]triazolo[3,4-a]phthalazin-6-yl)oxy)methyl)-N-(1-hydroxypropan-2-yl)benzamide] | −31.6% | 1.819 | 33.3% | 1.4765
O=C(NCCO)c1ccc(COc2nn3c(-c4cc(CO)on4)nnc3c3ccccc23)nc1 [Compound 39, N-(2-hydroxyethyl)-6-(((3-(5-(hydroxymethyl)isoxazol-3-yl)-[1,2,4]triazolo[3,4-a]phthalazin-6-yl)oxy)methyl)nicotinamide] | −26% | 1.497 | 49% | 2.174
O=C(c1ccc(COc2nn3c(-c4cc(CO)on4)nnc3c3ccccc23)nc1)N1CCS(=O)(=O)CC1 [Compound 40, (1,1-dioxidothiomorpholino)(6-(((3-(5-(hydroxymethyl)isoxazol-3-yl)-[1,2,4]triazolo[3,4-a]phthalazin-6-yl)oxy)methyl)pyridin-3-yl)methanone] | −25.5% | 1.468 | 29% | 1.286
Cc1cc(-c2nnc3c4ccccc4c(OCc4cc(C(=O)N[C@H](C)CO)on4)nn23)no1 [Compound 58, (R)—N-(1-hydroxypropan-2-yl)-3-(((3-(5-methylisoxazol-3-yl)-[1,2,4]triazolo[3,4-a]phthalazin-6-yl)oxy)methyl)isoxazole-5-carboxamide] | −27% | 1.554 | 30% | 1.33
COCCNC(=O)c1ccc(COc2nn3c(-c4cc(CO)on4)nnc3c3ccccc23)nc1 [Compound 43, 6-(((3-(5-(hydroxymethyl)isoxazol-3-yl)-[1,2,4]triazolo[3,4-a]phthalazin-6-yl)oxy)methyl)-N-(2-methoxyethyl)nicotinamide] | −35% | 2.015 | 27.9% | 1.239
CC(C)NC(=O)c1ccc(COc2nn3c(-c4cc(CO)on4)nnc3c3ccccc23)nc1 [Compound 38, 6-(((3-(5-(hydroxymethyl)isoxazol-3-yl)-[1,2,4]triazolo[3,4-a]phthalazin-6-yl)oxy)methyl)-N-iso propylnicotinamide] | −52.5% | 3.023 | 40% | 1.774
Cc1cc(-c2nnc3c4ccccc4c(OCc4ccc(C(=O)N[C@H](C)CO)cn4)nn23)no1 [Compound 02, (R)—N-(1-hydroxypropan-2-yl)-6-((3-(5-methylisoxazol-3-yl)-[1,2,4]triazolo[3,4-a]phthalazin-6-yloxy)methyl)nicotinamide] | −21.33% | 1.229 | 52.2% | 2.313
O=C(NC1CCOC1)c1ccc(COc2nn3c(-c4cc(CO)on4)nnc3c3ccccc23)nc1 (stereo not drawn) [Compound 47, 6-(((3-(5-(hydroxymethyl)isoxazol-3-yl)-[1,2,4]triazol[3,4-a]phthalazin-6-yl)oxy)methyl)-N-(tetrahydrofuran-3-yl)nicotinamide] | −26.875% | 1.547 | 51.5% | 2.284
Cc1cc(-c2nnc3c4ccccc4c(OCc4ccc(C(=O)NN5CCOCC5)cn4)nn23)no1 [Compound 01, 6-((3-(5-methylisoxazol-3-yl)-[1,2,4]triazolo[3,4-a]phthalazin-6-yloxy)methyl)-N-morpholinonicotinamide] | −18.67% | 1.075 | 58% | 2.572
